From patent publication US9580390B2, “Indazole compounds as kinase inhibitors and method of treating cancer with same” (University Health Network, priority 2011, dated 2017)
pIC50: −log10 of the molar value. Like-named read-outs stand apart in the source and are kept apart here.

Experiments:
[1] = tested on: TICs (Ovarian 2393A); test: Ovarian tumor-initiating cell growth inhibition (Alamar Blue); assay type: cell-based; conditions: 144 h; ovarian TICs, 6 days, Alamar Blue; read-out: Tumor Initiating Cell GI50 Range Ovarain 2393A
[2] = tested on: TICs (Colon 12); test: Colon tumor-initiating cell growth inhibition (Alamar Blue); assay type: cell-based; conditions: 216 h, 9 days, read-out: Tumor Initiating Cell GI50 Range Colon 12
[3] = tested on: colon cancer cells (HCT116); test: Cancer cell line growth inhibition (SRB assay); assay type: cell-based; conditions: read-out: Cancer Cell Line GI50 Range HCT116
[4] = tested on: ovarian cancer cells (PA-1); test: Cancer cell line growth inhibition (SRB assay); assay type: cell-based; conditions: PA-1, read-out: Cancer Cell Line GI50 Range PA-1
[5] = tested on: Breast cancer cells; test: Cancer cell line growth inhibition (SRB assay); assay type: cell-based; conditions: Homo sapiens; MDA-MB-468; read-out: Cancer Cell Line GI50 Range MDA-MB-468
[6] = molecular target: T1, human TTK (Homo sapiens, UniProt P33981); test: TTK inhibition assay (indirect ELISA); assay type: biochemical; conditions: read-out: TTK IC50 Range
T1 construct: amino terminal GST fusion of full length human TTK; purchased Invitrogen
T1 sequence (P33981 1-857): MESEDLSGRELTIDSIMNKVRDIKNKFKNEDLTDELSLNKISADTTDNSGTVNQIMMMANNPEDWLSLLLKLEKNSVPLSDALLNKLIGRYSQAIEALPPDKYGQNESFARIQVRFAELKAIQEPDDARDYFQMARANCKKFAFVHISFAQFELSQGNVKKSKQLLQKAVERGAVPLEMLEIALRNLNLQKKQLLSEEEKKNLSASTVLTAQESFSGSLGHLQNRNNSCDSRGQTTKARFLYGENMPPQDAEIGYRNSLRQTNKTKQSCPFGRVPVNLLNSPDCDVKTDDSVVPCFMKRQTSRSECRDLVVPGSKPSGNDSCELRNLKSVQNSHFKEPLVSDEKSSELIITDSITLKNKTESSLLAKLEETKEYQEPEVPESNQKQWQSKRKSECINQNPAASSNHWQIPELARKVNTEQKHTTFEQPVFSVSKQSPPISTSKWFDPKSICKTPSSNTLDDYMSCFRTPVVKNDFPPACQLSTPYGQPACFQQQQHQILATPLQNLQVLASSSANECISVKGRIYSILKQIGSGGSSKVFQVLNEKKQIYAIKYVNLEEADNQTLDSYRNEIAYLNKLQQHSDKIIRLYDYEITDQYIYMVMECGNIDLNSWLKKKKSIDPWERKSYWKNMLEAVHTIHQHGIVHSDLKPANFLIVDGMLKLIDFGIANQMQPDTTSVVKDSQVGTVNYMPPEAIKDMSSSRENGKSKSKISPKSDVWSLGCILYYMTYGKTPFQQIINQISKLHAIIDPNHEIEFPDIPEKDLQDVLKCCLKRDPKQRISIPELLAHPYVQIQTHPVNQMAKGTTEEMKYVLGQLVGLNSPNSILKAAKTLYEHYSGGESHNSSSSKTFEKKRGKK

[7] = Homo sapiens, HCT-116, HCT116 colon cancer cells, SRB assay

| SMILES | GI50 [1] [µM] | GI50 ([2]; colon TICs, Alamar Blue) [µM] | GI50 [3, 7] [µM] | GI50 ([2]; Colon 12 TICs) [µM] | GI50 ([3]; Homo sapiens, HCT-116) [µM] | GI50 ([4]; Homo sapiens) [µM] | GI50 [5] [µM] | pIC50 [6] | GI50 ([3]; HCT116) [µM] | GI50 [4] [µM] |
| --- | --- | --- | --- | --- | --- | --- | --- | --- | --- | --- |
| CC(C)[C@H](NC(=O)c1ccc2[nH]nc(-c3ccc(N4CC(N5CCOCC5)C4)cc3)c2c1)c1ccccc1Cl [Example A313, (S)-N-(1-(2-chlorophenyl)-2-methylpropyl)-3-(4-(3-morpholinoazetidin-1-yl)phenyl)-1H-indazole-5-carboxamide] |  |  |  | < 0.1 | < 0.1 | < 0.1 | < 0.1 | > 7.00 |  |  |
| O=C(N[C@H](c1ccccn1)C1CCCC1)c1ccc2[nH]nc(-c3ccc(N4CC(N5CCOCC5)C4)cc3)c2c1 [Example A314] |  |  |  | < 0.1 | < 0.1 | < 0.1 | < 0.1 | > 7.00 |  |  |
| O=C(N[C@@H](c1ccccn1)C1CCCC1)c1ccc2[nH]nc(-c3ccc(N4C5CCC4CC(O)C5)cc3)c2c1 (stereo partly drawn) [Example A364, N-((R)-cyclopentyl(pyridin-2-yl)methyl)-3-(4-((1R,3R,5S)-3-hydroxy-8-azabicyclo[3.2.1]octan-8-yl)phenyl)-1H-indazole-5-carboxamide] |  |  |  | < 0.1 | < 0.1 | < 0.1 | < 0.1 | > 7.00 |  |  |
| O=C(N[C@@H](c1ncccn1)C1CCCC1)c1ccc2[nH]nc(-c3ccc(N4C5CCC4CC(O)C5)cc3)c2c1 (stereo partly drawn) [Example A366, N-((R)-cyclopentyl(pyrimidin-2-yl)methyl)-3-(4-((1R,3R,5S)-3-hydroxy-8-azabicyclo[3.2.1]octan-8-yl)phenyl)-1H-indazole-5-carboxamide] |  |  |  | < 0.1 | < 0.1 | < 0.1 | < 0.1 | > 7.00 |  |  |
| O=C(N[C@H](c1ncccn1)C1CCCC1)c1ccc2[nH]nc(-c3ccc(N4C5CCC4CC(O)C5)cc3)c2c1 (stereo partly drawn) [Example A367, N-((S)-cyclopentyl(pyrimidin-2-yl)methyl)-3-(4-((1R,3S,5S)-3-hydroxy-8-azabicyclo[3.2.1]octan-8-yl)phenyl)-1H-indazole-5-carboxamide] |  |  |  | < 0.1 | < 0.1 | < 0.1 | < 0.1 | > 7.00 |  |  |
| O=C(N[C@H](c1ccccn1)C1CC1)c1ccc2[nH]nc(-c3ccc(N4[C@@H]5CC[C@H]4COC5)cc3)c2c1 [Example A414, 3-(4-((1R,5S)-3-oxa-8-azabicyclo[3.2.1]octan-8-yl)phenyl)-N-((S)-cyclopropyl(pyridin-2-yl)methyl)-1H-indazole-5-carboxamide] |  |  |  | < 0.1 | < 0.1 | < 0.1 | < 0.1 | > 7.00 |  |  |
| O=C(NCC1(c2ccccc2)CCOCC1)c1ccc2[nH]nc(-c3ccc(N4CC(N5CCOCC5)C4)cc3)c2c1 [Example A499, 3-(4-(3-morpholinoazetidin-1-yl)phenyl)-N-((4-phenyltetrahydro-2H-pyran-4-yl)methyl)-1H-indazole-5-carboxamide] |  |  |  |  | 0.1 to 0.5 | 0.1 to 0.5 | 0.1 to 0.5 | > 7.00 |  |  |
| O=C(NCC1(N2CCOCC2)CCCCC1)c1ccc2[nH]nc(-c3ccc(N4[C@@H]5CC[C@H]4COC5)cc3)c2c1 [Example A501, 3-(4-((1R,5S)-3-oxa-8-azabicyclo[3.2.1]octan-8-yl)phenyl)-N-((1-morpholinocyclohexyl)methyl)-1H-indazole-5-carboxamide] |  |  |  | < 0.1 | < 0.1 | < 0.1 | < 0.1 | > 7.00 |  |  |
| O=C(NCC1(N2CCOCC2)CCCCC1)c1ccc2[nH]nc(-c3ccc(O[C@H]4C[C@H]5CC[C@@H](C4)N5C4COC4)cc3)c2c1 [Example A507, N-((1-morpholinocyclohexyl)methyl)-3-(4-(((1R,3R,5S)-8-(oxetan-3-yl)-8-azabicyclo[3.2.1]octan-3-yl)oxy)phenyl)-1H-indazole-5-carboxamide] |  |  |  |  | 0.1 to 0.5 | 0.1 to 0.5 | 0.1 to 0.5 | > 7.00 |  |  |
| O=C(NCC1(CN2CCOCC2)CCCCC1)c1ccc2[nH]nc(-c3ccc(N4CCOCC4)cc3)c2c1 [Example A509, N-((1-(morpholinomethyl)cyclohexyl)methyl)-3-(4-morpholinophenyl)-1H-indazole-5-carboxamide] |  |  |  |  | > 0.5 | > 0.5 | > 0.5 | > 7.00 |  |  |
| O=C(NCC1(CN2CCOCC2)CCCCC1)c1ccc2[nH]nc(-c3ccc(N4[C@@H]5CC[C@H]4COC5)cc3)c2c1 [Example A510, 3-(4-((1R,5S)-3-oxa-8-azabicyclo[3.2.1]octan-8-yl)phenyl)-N-((1-(morpholinomethyl)cyclohexyl)methyl)-1H-indazole-5-carboxamide] |  |  |  |  | 0.1 to 0.5 | 0.1 to 0.5 | 0.1 to 0.5 | > 7.00 |  |  |
| CC(C)C[C@H](NC(=O)c1ccc2[nH]nc(-c3ccc(OC4CCN(C5COC5)CC4)cc3)c2c1)c1ccccc1Cl [Example A511, (S)-N-(1-(2-chlorophenyl)-3-methylbutyl)-3-(4-((1-(oxetan-3-yl)piperidin-4-yl)oxy)phenyl)-1H-indazole-5-carboxamide] |  |  |  |  | 0.1 to 0.5 | < 0.1 | 0.1 to 0.5 | > 7.00 |  |  |
| O=C(N[C@@H](c1ccccn1)C1CC1)c1ccc2[nH]nc(-c3ccc(N4C5CCC4CC(O)C5)cc3)c2c1 (some centres unmarked) [Example A512] |  |  |  |  |  |  | 0.1 to 0.5 | > 7.00 | < 0.1 | < 0.1 |

The next lines start with results.

| GI50 [1] [µM] | GI50 ([2]; colon TICs, Alamar Blue) [µM] | GI50 [3, 7] [µM] | SMILES | GI50 ([2]; Colon 12 TICs) [µM] | GI50 ([3]; Homo sapiens, HCT-116) [µM] | GI50 ([4]; Homo sapiens) [µM] | GI50 [5] [µM] | pIC50 [6] | GI50 ([3]; HCT116) [µM] | GI50 [4] [µM] |
| --- | --- | --- | --- | --- | --- | --- | --- | --- | --- | --- |
| 0.1 to 0.5 | < 0.1 | < 0.1 | O=C(Nc1ccc2[nH]nc(-c3ccc(N4CCOCC4)cc3)c2c1)C(c1ccsc1)N1CCCC1 (centres unmarked) [Example A4] |  |  |  |  |  |  |  |
| 0.1 to 0.5 | > 0.5 | < 0.1 | O=C(NC(c1ccccc1)C1CC1)c1ccc2[nH]nc(-c3ccc(N4CCOCC4)cc3)c2c1 (centres unmarked) [Example A12, N-(cyclopropyl(phenyl)methyl)-3-(4-morpholinophenyl)-1H-indazole-5-carboxamide] |  |  |  |  |  |  |  |
| 0.1 to 0.5 | 0.1 to 0.5 | < 0.1 | CO[C@@H](C(=O)Nc1ccc2[nH]nc(-c3ccc(OC4CCN(C)CC4)cc3)c2c1)c1ccccc1 [Example A27, (R)-2-methoxy-N-(3-(4-((1-methylpiperidin-4-yl)oxy)phenyl)-1H-indazol-5-yl)-2-phenylacetamide] |  |  |  |  |  |  |  |
| 0.1 to 0.5 | 0.1 to 0.5 | < 0.1 | CN1CCC(Oc2ccc(-c3n[nH]c4ccc(C(=O)NC(c5ccsc5)C5CC5)cc34)cc2)CC1 (centres unmarked) [Example A33, N-(cyclopropyl(thiophen-3-yl)methyl)-3-(4-((1-methylpiperidin-4-yl)oxy)phenyl)-1H-indazole-5-carboxamide] |  |  |  |  |  |  |  |
| 0.1 to 0.5 | > 0.5 | < 0.1 | O=C(NC(c1ccsc1)C1CC1)c1ccc2[nH]nc(-c3ccc(N4CCOCC4)cc3)c2c1 (centres unmarked) [Example A35, N-(cyclopropyl(thiophen-3-yl)methyl)-3-(4-morpholinophenyl)-1H-indazole-5-carboxamide] |  |  |  |  |  |  |  |
| < 0.1 | 0.1 to 0.5 | < 0.1 | C[C@H]1CCCN1[C@H](C(=O)Nc1ccc2[nH]nc(-c3ccc(OC4CCN(C)CC4)cc3)c2c1)c1ccsc1 [Example A41, (S)-N-(3-(4-((1-methylpiperidin-4-yl)oxy)phenyl)-1H-indazol-5-yl)-2-((S)-2-methylpyrrolidin-1-yl)-2-(thiophen-3-yl)acetamide] |  |  |  |  |  |  |  |
| 0.1 to 0.5 | > 0.5 | < 0.1 | CCc1cccc(CC)c1NC(=O)Nc1ccc2[nH]nc(-c3ccc(OC4CCN(C)CC4)cc3)c2c1 [Example A46, 1-(2,6-diethylphenyl)-3-(3-(4-((1-methylpiperidin-4-yl)oxy)phenyl)-1H-indazol-5-yl)urea] |  |  |  |  |  |  |  |
